From paper PMC7554048, “FBI-1 enhanced the resistance of triple-negative breast cancer cells to chemotherapeutic agents via the miR-30c/PXR axis” (Cell Death & Disease, 2020)
Like-named read-outs stand apart in the source and are kept apart here.

Legend:
[1] = Olaparib sustained in cultured TNBC cells, LC-MS/MS (half-life); assay type: in vitro ADME, human; conditions: human
Description: (§1) TNBC cells transfected with plasmids were used for the pharmacokinetic experiments to examine the amount of olaparib sustained in the cells. For the cell-based experiments, cells were treated with 1 μmol/L concentration of olaparib for 12 h[33]. Then, cells were harvested at indicated time-points. For the animal experiments, TNBC cells were injected into the subcutaneous position to form subcutaneous tumor tissues. After 2–3 weeks’ growth, when the tumor volumes reached 1500–2000 mm^3, the solution of olaparib was injected into the subcutaneous tumors. Then, the tumor tissues were harvested at indicated times[34],[35]. The olaparib in cells or tumor tissues was extracted by acetonitrile (ACN), and the amount of olaparib sustained in cells or tumor tissues at each time point was determined by liquid chromatography–mass spectrometry/mass spectrometry (LC-MS/MS), following the methods established by Krens et al.[36]. The sustaining rates of olaparib were calculated as (the amount of olaparib at each time)/(the amount of olaparib at 0-time) × 100%. The sustaining curves or the half-time life (t1/2) of olaparib was obtained by the sustained rates of olaparib.

[2] = tested on: MDA-MB-436; assay: Cell-survival SRB assay; assay type: cell-based; conditions: Homo sapiens, MDA-MB-436, 48 h, read-out: The IC50 values of olaparib
Description: (§2) The TNBC cells were treated with the indicated concentration of agents (10, 3, 1, 0.3, 0.1, 0.03, or 0.01 μmol/L for olaparib) for 48 h. Then, cells were analyzed by the Sulforhodamine B (SRB) assay, following the methods provided by and Li et al.[23] and Guan et al.[24]. The relative survival cells were determined by the O.D. values (optical density values) at 510 nm. […] The IC50 values of agents were calculated from the inhibition rates[23],[24]. The colony formation experiments were performed following the method desicripted by Fang et al.[5]. TNBC cells were transfected with the plasmids and treated with solvent control or the olaparib. The cells were analyzed by the colony-formation.

[3] = tested on: PDC No. 3; assay: Cell-survival SRB assay; assay type: cell-based; conditions: Homo sapiens, 48 h, read-out: IC50 values of olparib
Description: as §2

[4] = tested on: HCC-1937; assay: Cell-survival SRB assay; assay type: cell-based; conditions: Homo sapiens, HCC1937, 48 h, read-out: The IC50 values of olaparib
Description: as §2

[5] = tested on: PDC No. 6; assay: Cell-survival SRB assay; assay type: cell-based; conditions: Homo sapiens, 48 h, read-out: IC50 values of olparib
Description: as §2

[6] = tested on: PDC No. 7; assay: Cell-survival SRB assay; assay type: cell-based; conditions: Homo sapiens, 48 h, read-out: IC50 values of olparib
Description: as §2

[7] = tested on: PDC No. 2; assay: Cell-survival SRB assay; assay type: cell-based; conditions: Homo sapiens, 48 h, read-out: IC50 values of olparib
Description: as §2

[8] = tested on: PDC No. 9; assay: Cell-survival SRB assay; assay type: cell-based; conditions: Homo sapiens, 48 h, read-out: IC50 values of olparib
Description: as §2

[9] = Olaparib sustained in subcutaneous TNBC tumors after intratumoral injection, LC-MS/MS (half-life); assay type: in vivo, nude mice; conditions: nude, mouse, subcutaneous tumor tissue, other: injected into the subcutaneous tumors (intratumoral), read-out: Half life values of olaparib (t1/2) In subcutaneous tumors (converted)
Description: as §1

[10] = tested on: TNBC PDC No. 3; assay: In vivo antitumor effect of olaparib on subcutaneous TNBC tumors; conditions: nude mice, oral administration once every two days, 4–5 weeks
Description: Female nude mice, 4–6 weeks old, were purchased from Beijing Si-Bei-Fu Corporation, China. The animal experiments were approved by the Institutional Animal Care and Use Committee of the Chinese PLA General Hospital, China. All animal experiments (n = 10 for each group; animals were randomly divided into the groups) were performed according to the UK Animals (Scientific Procedures) Act, 1986, and associated guidelines. TNBC cells transfected with plasmids were treated with olaparib via oral administration once every two days. After 4–5 weeks’ treatment, the tumor tissues of the mice were harvested. The tumor volumes or tumor weights were determined following the methods described by Jia et al.[37]. The inhibition rates of olaparib were calculated by the tumor volumes or tumor weights.

**Q.** Which results are given for `O=C(c1cc(Cc2n[nH]c(=O)c3ccccc23)ccc1F)N1CCN(C(=O)C2CC2)CC1` [olaparib]?
**A.** half-life at 1 μmol/L ([1]; HCC-1937, FBI-1 + miR-30c, read-out: half life values of olaparib (t1/2) (converted)): 57.3 ± 8.91 h; half-life at 1 μmol/L ([1]; HCC-1937 TNBC cells, HCC-1937, FBI-1, read-out: half life values of olaparib (t1/2) (converted)): 9.44 ± 0.57 h; half-life at 1 μmol/L ([1]; HCC-1937 TNBC cells, HCC-1937, control, read-out: half life values of olaparib (t1/2) (converted)): 31.2 ± 4.67 h; half-life at 1 μmol/L ([1]; HCC-1937 TNBC cells, HCC-1937, miR-30c + PXR^Mut, read-out: half life values of olaparib (t1/2) (converted)): 8.55 ± 0.3 h; half-life at 1 μmol/L ([1]; HCC-1937 TNBC cells, HCC-1937, miR-30c, read-out: half life values of olaparib (t1/2) (converted)): 68.3 ± 13.4 h; half-life at 1 μmol/L ([1]; HCC-1937 TNBC cells, HCC-1937, siFBI-1 + miR-30c inhibitor, read-out: half life values of olaparib (t1/2) (converted)): 18.6 ± 4.08 h; half-life at 1 μmol/L ([1]; HCC-1937 TNBC cells, HCC-1937, siFBI-1, read-out: half life values of olaparib (t1/2) (converted)): 50.2 ± 5.62 h; half-life at 1 μmol/L ([1]; MDA-MB-436, FBI-1 + miR-30c, read-out: half life values of olaparib (t1/2) (converted)): 44.1 ± 5.75 h; half-life at 1 μmol/L ([1]; MDA-MB-436 TNBC cells, MDA-MB-436, FBI-1, read-out: half life values of olaparib (t1/2) (converted)): 13.4 ± 2.75 h; half-life at 1 μmol/L ([1]; MDA-MB-436 TNBC cells, MDA-MB-436, control, read-out: half life values of olaparib (t1/2) (converted)): 28.9 ± 4.32 h; half-life at 1 μmol/L ([1]; MDA-MB-436 TNBC cells, MDA-MB-436, miR-30c + PXR^Mut, read-out: half life values of olaparib (t1/2) (converted)): 11.2 ± 4.33 h; half-life at 1 μmol/L ([1]; MDA-MB-436 TNBC cells, MDA-MB-436, miR-30c, read-out: half life values of olaparib (t1/2) (converted)): 51.3 ± 7.14 h; half-life at 1 μmol/L ([1]; MDA-MB-436 TNBC cells, MDA-MB-436, siFBI-1 + miR-30c inhibitor, read-out: half life values of olaparib (t1/2) (converted)): 20.3 ± 5.48 h; half-life at 1 μmol/L ([1]; MDA-MB-436 TNBC cells, MDA-MB-436, siFBI-1, read-out: half life values of olaparib (t1/2) (converted)): 47.3 ± 7.42 h; half-life at 1 μmol/L ([1]; TNBC cells PDC No. 2, PDC No. 2, Control, read-out: Half life values of olaparib (t1/2) In cultured cells (converted)): 21.7 ± 6.89 h; half-life at 1 μmol/L ([1]; TNBC cells PDC No. 2, PDC No. 2, siFBI-1, read-out: Half life values of olaparib (t1/2) In cultured cells (converted)): 60.8 ± 4.85 h; half-life at 1 μmol/L ([1]; TNBC cells PDC No. 3, PDC No. 3, Control (Table 3), read-out: Half life values of olaparib (t1/2) In cultured cells (converted)): 25 ± 7.82 h; half-life at 1 μmol/L ([1]; TNBC cells PDC No. 3, PDC No. 3, Control (Table 4), read-out: Half-life values of olparib (t1/2) (converted)): 27.4 ± 4.3 h; half-life at 1 μmol/L ([1]; TNBC cells PDC No. 3, PDC No. 3, FBI-1 (Table 3), read-out: Half life values of olaparib (t1/2) In cultured cells (converted)): 11.7 ± 3.88 h; half-life at 1 μmol/L ([1]; TNBC cells PDC No. 3, PDC No. 3, FBI-1 (Table 4), read-out: Half-life values of olparib (t1/2) (converted)): 10.6 ± 4.54 h; half-life at 1 μmol/L ([1]; TNBC cells PDC No. 3, PDC No. 3, siFBI-1, read-out: Half life values of olaparib (t1/2) In cultured cells (converted)): 59.2 ± 8.91 h; half-life at 1 μmol/L ([1]; TNBC cells PDC No. 3, with ketoconazole (concentration not stated), PDC No. 3, FBI-1 + ketoconazole, read-out: Half-life values of olparib (t1/2) (converted)): 26.2 ± 3.85 h; half-life at 1 μmol/L ([1]; TNBC cells PDC No. 6, PDC No. 6, Control, read-out: Half life values of olaparib (t1/2) In cultured cells (converted)): 19.4 ± 5.83 h; half-life at 1 μmol/L ([1]; TNBC cells PDC No. 6, PDC No. 6, siFBI-1, read-out: Half life values of olaparib (t1/2) In cultured cells (converted)): 51.4 ± 11.5 h; half-life at 1 μmol/L ([1]; TNBC cells PDC No. 7, PDC No. 7, Control, read-out: Half life values of olaparib (t1/2) In cultured cells (converted)): 21 ± 5.01 h; half-life at 1 μmol/L ([1]; TNBC cells PDC No. 7, PDC No. 7, siFBI-1, read-out: Half life values of olaparib (t1/2) In cultured cells (converted)): 55.5 ± 9.97 h; half-life at 1 μmol/L ([1]; TNBC cells PDC No. 9, PDC No. 9, Control (Table 3), read-out: Half life values of olaparib (t1/2) In cultured cells (converted)): 33.8 ± 5.5 h; half-life at 1 μmol/L ([1]; TNBC cells PDC No. 9, PDC No. 9, Control (Table 4), read-out: Half-life values of olparib (t1/2) (converted)): 36.3 ± 6.64 h; half-life at 1 μmol/L ([1]; TNBC cells PDC No. 9, PDC No. 9, FBI-1 (Table 3), read-out: Half life values of olaparib (t1/2) In cultured cells (converted)): 18.1 ± 4.44 h; half-life at 1 μmol/L ([1]; TNBC cells PDC No. 9, PDC No. 9, FBI-1 (Table 4), read-out: Half-life values of olparib (t1/2) (converted)): 14.9 ± 2.88 h; half-life at 1 μmol/L ([1]; TNBC cells PDC No. 9, with ketoconazole (concentration not stated), PDC No. 9, FBI-1 + ketoconazole, read-out: Half-life values of olparib (t1/2) (converted)): 37.8 ± 5.55 h; IC50 ([2]; MDA-MB-436, FBI-1 + miR-30c, 48 h): 210 ± 20 nM; IC50 ([2]; MDA-MB-436, FBI-1, 48 h): 2460 ± 790 nM; IC50 ([2]; MDA-MB-436, control, 48 h): 790 ± 280 nM; IC50 ([2]; MDA-MB-436, miR-30c + PXR^Mut, 48 h): 2750 ± 400 nM; IC50 ([2]; MDA-MB-436, miR-30c, 48 h): 100 ± 30 nM; IC50 ([2]; MDA-MB-436, siFBI-1 + miR-30c inhibitor, 48 h): 1820 ± 310 nM; IC50 ([2]; MDA-MB-436, siFBI-1, 48 h): 140 ± 10 nM; IC50 ([3]; PDC No. 3, FBI-1, 48 h): 8750 ± 1000 nM; IC50 ([3]; PDC No. 3, control): 940 ± 100 nM; IC50 ([3]; PDC No. 3, ketoconazole + FBI-1, 48 h): 630 ± 110 nM; IC50 ([3]; PDC No. 3, siFBI-1, 48 h): 100 ± 50 nM; IC50 ([4]; HCC-1937, FBI-1 + miR-30c, 48 h): 240 ± 40 nM; IC50 ([4]; HCC-1937, FBI-1, 48 h): 3700 ± 380 nM; IC50 ([4]; HCC-1937, control, 48 h): 900 ± 330 nM; IC50 ([4]; HCC-1937, miR-30c + PXR^Mut, 48 h): 4900 ± 820 nM; IC50 ([4]; HCC-1937, miR-30c, 48 h): 100 ± 50 nM; IC50 ([4]; HCC-1937, siFBI-1 + miR-30c inhibitor, 48 h): 2210 ± 510 nM; IC50 ([4]; HCC-1937, siFBI-1, 48 h): 130 ± 80 nM; IC50 ([5]; PDC No. 6, control): 1740 ± 820 nM; IC50 ([5]; PDC No. 6, siFBI-1, 48 h): 250 ± 40 nM; IC50 ([6]; PDC No. 7, control): 2040 ± 770 nM; IC50 ([6]; PDC No. 7, siFBI-1, 48 h): 330 ± 100 nM; IC50 ([7]; PDC No. 2, control): 1320 ± 250 nM; IC50 ([7]; PDC No. 2, siFBI-1, 48 h): 220 ± 20 nM; IC50 ([8]; PDC No. 9, FBI-1, 48 h): 9880 ± 650 nM; IC50 ([8]; PDC No. 9, control): 850 ± 330 nM; IC50 ([8]; PDC No. 9, ketoconazole + FBI-1, 48 h): 1640 ± 520 nM; half-life ([9]; PDC No. 2, Control): 30.1 ± 6.81 h; half-life ([9]; PDC No. 2, siFBI-1): 53.7 ± 7.34 h; half-life ([9]; PDC No. 3, Control): 32.2 ± 9.21 h; half-life ([9]; PDC No. 3, FBI-1): 17.9 ± 8.65 h; half-life ([9]; PDC No. 3, siFBI-1): 62.7 ± 6.77 h; half-life ([9]; PDC No. 6, Control): 28.6 ± 9.84 h; half-life ([9]; PDC No. 6, siFBI-1): 43.6 ± 7.72 h; half-life ([9]; PDC No. 7, Control): 31.4 ± 9.95 h; half-life ([9]; PDC No. 7, siFBI-1): 58.2 ± 9.06 h; half-life ([9]; PDC No. 9, Control): 36.1 ± 8.33 h; half-life ([9]; PDC No. 9, FBI-1): 22.6 ± 4.36 h; subcutaneous growth of TNBC cells [10]: inhibited the subcutaneous growth of TNBC cells
